From PMC2701352 (Biochemical pharmacology, 2008)
“Also recorded” adds a separate entry of the source.

Experiments:
hMC4R/TM3 hMC1R = hMC4R/TM3 hMC1R (Homo sapiens, UniProt P32245+Q01726); test: cAMP production, hMC4R/TM3hMC1R chimera
hMC4R/TM5 hMC1R = test: cAMP production, hMC4R/TM5hMC1R chimera; conditions: Fig. 4B, 4D
hMC4R/TM2 hMC1R = hMC4R/TM2 hMC1R (Homo sapiens, UniProt P32245, A89S/G98V/I102A/M91L/S85C/S99L/V88L/V95G); test: cAMP production, hMC4R/TM2hMC1R chimera; type: cell-based
hMC1R WT = hMC1R WT (Homo sapiens, UniProt Q01726); test: cAMP production, hMC1R WT in HEK-293 cells; type: cell-based
hMC4R WT = hMC4R WT (Homo sapiens, UniProt P32245); test: cAMP production, hMC4R WT in HEK-293 cells; type: cell-based
hMC4R/TM4 hMC1R = hMC4R/TM4 hMC1R (Homo sapiens, UniProt P32245+Q01726); test: cAMP production, hMC4R/TM4hMC1R chimera
hMC4R/TM6 hMC1R = hMC4R/TM6 hMC1R (Homo sapiens, UniProt P32245+Q01726); test: cAMP production, hMC4R/TM6hMC1R chimera
Sequence of hMC4R/TM6 hMC1R (P32245 1-251 limits assumed, other chains not shown): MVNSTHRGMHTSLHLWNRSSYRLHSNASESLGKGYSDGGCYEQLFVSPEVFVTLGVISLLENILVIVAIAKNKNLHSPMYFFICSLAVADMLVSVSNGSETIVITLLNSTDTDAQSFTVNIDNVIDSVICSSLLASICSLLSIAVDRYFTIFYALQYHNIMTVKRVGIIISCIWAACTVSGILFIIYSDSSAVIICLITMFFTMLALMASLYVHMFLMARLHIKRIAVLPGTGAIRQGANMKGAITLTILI
Sequence of hMC4R/TM6 hMC1R (P32245 271-332 limits assumed, other chains not shown): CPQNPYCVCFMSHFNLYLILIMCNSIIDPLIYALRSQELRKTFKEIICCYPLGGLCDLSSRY

Sequence of hMC1R WT (Q01726 whole entry): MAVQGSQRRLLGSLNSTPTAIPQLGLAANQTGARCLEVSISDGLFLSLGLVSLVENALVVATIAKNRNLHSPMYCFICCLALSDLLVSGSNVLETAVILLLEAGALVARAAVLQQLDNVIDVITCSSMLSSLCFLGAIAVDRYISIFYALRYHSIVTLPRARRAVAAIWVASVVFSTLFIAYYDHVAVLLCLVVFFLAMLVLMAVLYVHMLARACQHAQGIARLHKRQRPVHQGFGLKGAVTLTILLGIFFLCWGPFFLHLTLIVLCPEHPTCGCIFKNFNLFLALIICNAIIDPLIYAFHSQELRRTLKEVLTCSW
Sequence of hMC4R WT (P32245 whole entry): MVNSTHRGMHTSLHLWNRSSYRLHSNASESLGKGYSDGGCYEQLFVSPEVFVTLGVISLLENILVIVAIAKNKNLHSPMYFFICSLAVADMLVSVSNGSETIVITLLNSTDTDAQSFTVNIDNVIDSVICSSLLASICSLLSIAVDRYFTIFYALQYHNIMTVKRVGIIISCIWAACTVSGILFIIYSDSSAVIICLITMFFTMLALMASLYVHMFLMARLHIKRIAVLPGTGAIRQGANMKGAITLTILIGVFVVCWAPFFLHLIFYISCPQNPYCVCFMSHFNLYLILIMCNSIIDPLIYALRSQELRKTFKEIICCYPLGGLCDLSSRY
Sequence of hMC4R/TM3 hMC1R (P32245 1-121 limits assumed): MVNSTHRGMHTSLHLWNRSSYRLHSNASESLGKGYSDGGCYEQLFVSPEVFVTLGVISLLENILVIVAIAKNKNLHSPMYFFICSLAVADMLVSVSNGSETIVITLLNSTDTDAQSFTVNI
Sequence of hMC4R/TM3 hMC1R (Q01726 117-137 limits assumed): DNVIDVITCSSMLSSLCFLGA
Sequence of hMC4R/TM3 hMC1R (P32245 143-332 limits assumed): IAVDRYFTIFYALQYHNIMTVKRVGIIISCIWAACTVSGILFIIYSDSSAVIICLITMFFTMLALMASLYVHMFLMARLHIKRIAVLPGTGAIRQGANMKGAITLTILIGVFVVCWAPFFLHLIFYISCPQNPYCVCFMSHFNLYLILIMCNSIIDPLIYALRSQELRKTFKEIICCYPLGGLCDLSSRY
Sequence of hMC4R/TM4 hMC1R (P32245 1-172 limits assumed, other chains not shown): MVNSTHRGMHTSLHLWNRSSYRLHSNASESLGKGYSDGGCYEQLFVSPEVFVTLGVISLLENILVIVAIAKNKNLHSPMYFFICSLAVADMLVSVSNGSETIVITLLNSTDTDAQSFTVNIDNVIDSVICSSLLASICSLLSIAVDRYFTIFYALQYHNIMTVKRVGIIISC
Sequence of hMC4R/TM4 hMC1R (P32245 188-332 limits assumed, other chains not shown): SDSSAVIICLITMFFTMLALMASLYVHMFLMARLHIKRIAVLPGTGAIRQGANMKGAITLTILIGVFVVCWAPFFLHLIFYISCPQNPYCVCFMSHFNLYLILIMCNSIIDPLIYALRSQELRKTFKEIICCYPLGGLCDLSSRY
Sequence of hMC4R/TM2 hMC1R (P32245 whole entry S85C/V88L/A89S/M91L/V95G/G98V/S99L/I102A): as the sequence (P32245 whole entry) above, with S85C, V88L, A89S, M91L, V95G, G98V, S99L, I102A counted along it

EC50 (hMC4R/TM3 hMC1R): 3.3 ± 0.5 nM
EC50 (hMC4R/TM2 hMC1R): 2.9 ± 0.3 nM
EC50 (hMC1R WT): 2.3 ± 0.5 nM
EC50 (hMC4R WT): 35 nM
EC50 (hMC4R/TM4 hMC1R): 3.1 ± 0.3 nM
EC50 (hMC4R/TM6 hMC1R): 3.2 ± 0.3 nM
Compound: CCCC[C@H](NC(=O)[C@@H](NC(=O)[C@@H](N)Cc1ccc(O)cc1)C(C)C)C(=O)NCC(=O)N1CCC[C@H]1C(=O)N[C@H](Cc1ccccc1)C(=O)N[C@@H](CCCNC(=N)N)C(=O)N[C@@H](Cc1c[nH]c2ccccc12)C(=O)N[C@@H](CC(=O)O)C(=O)N[C@@H](CCCNC(=N)N)C(=O)N[C@@H](Cc1ccccc1)C(=O)NCC(N)=O [[DPhe^6]-γ-MSH, H-Tyr-Val-Nle-Gly-Pro-DPhe-Arg-Trp-Asp-Arg-Phe-Gly-NH2]
cAMP potency (in words) (hMC4R/TM3 hMC1R; Fig. 3B, 3D): did not significantly alter [DPhe^6]-γ-MSH potency
cAMP potency (in words) (hMC4R/TM5 hMC1R): did not significantly alter [DPhe^6]-γ-MSH potency
cAMP potency (in words) (hMC4R/TM2 hMC1R; Fig. 3B, 3D): did not significantly alter [DPhe^6]-γ-MSH potency
cAMP production, potency and agonism (in words) (hMC1R WT; Fig. 2B, 2D): dose-dependently increased cAMP generation; also recorded: non selective agonist for the MC1R and MC4R
cAMP production, potency and agonism (in words) (hMC4R WT; Fig. 2B, 2D): dose-dependently increased cAMP generation; also recorded: non selective agonist for the MC1R and MC4R
cAMP potency (in words) (hMC4R/TM4 hMC1R; Figs. 3 and 4): did not significantly alter [DPhe^6]-γ-MSH potency
cAMP potency (in words) (hMC4R/TM6 hMC1R; Fig. 4B, 4D): did not significantly alter [DPhe^6]-γ-MSH potency
